Article PMC11284340 (FASEB journal : official publication of the Federation of …, 2024)

Experiments:
[1] = molecular target: T1, Drosophila insulin receptor kinase domain (D-IRK) (Drosophila melanogaster, UniProt P09208); test: [γ-32P]-ATP phosphocellulose kinase assay; format: biochemical; conditions: read-out: % inhibition at 10 μM
T1 sequence (P09208 1358-1672): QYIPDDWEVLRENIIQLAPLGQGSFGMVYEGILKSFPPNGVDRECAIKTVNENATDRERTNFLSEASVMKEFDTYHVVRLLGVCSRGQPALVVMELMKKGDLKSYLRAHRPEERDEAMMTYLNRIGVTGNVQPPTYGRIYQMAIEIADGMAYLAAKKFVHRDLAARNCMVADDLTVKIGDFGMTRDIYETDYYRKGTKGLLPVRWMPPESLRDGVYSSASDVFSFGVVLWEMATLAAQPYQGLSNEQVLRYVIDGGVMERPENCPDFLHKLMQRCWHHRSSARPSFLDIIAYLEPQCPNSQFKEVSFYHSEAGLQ

[2] = molecular target: T1, Drosophila insulin receptor kinase domain (D-IRK); test: [γ-32P]-ATP phosphocellulose kinase assay at […]; format: biochemical; conditions: read-out: % inhibition at 10 μM
[3] = substrate: Nc1ncnc2c1ncn2[C@@H]1O[C@H](COP(=O)(O)OP(=O)(O)OP(=O)(O)O)[C@@H](O)[C@H]1O; test: continuous spectrophotometric coupled assay, Km; format: biochemical, Drosophila melanogaster; conditions: Mg2+ ATP-binding site

Molecule: CN[C@@H]1C[C@H]2O[C@@](C)([C@@H]1OC)n1c3ccccc3c3c4c(c5c6ccccc6n2c5c31)C(=O)NC4 [Staurosporine]
- inhibition at 10 µM [1]: 98%

Molecule: COc1cc2c(Nc3ccc(Br)cc3F)ncnc2cc1OCC1CCN(C)CC1 [Vandetanib]
- inhibition at 10 µM [2]: ~70%

B1: Drosophila insulin receptor kinase domain (D-IRK) (Drosophila melanogaster) (protein)
chain: QYIPDDWEVLRENIIQLAPLGQGSFGMVYEGILKSFPPNGVDRECAIKTVNENATDRERTNFLSEASVMKEFDTYHVVRLLGVCSRGQPALVVMELMKKGDLKSYLRAHRPEERDEAMMTYLNRIGVTGNVQPPTYGRIYQMAIEIADGMAYLAAKKFVHRDLAARNCMVADDLTVKIGDFGMTRDIYETDYYRKGTKGLLPVRWMPPESLRDGVYSSASDVFSFGVVLWEMATLAAQPYQGLSNEQVLRYVIDGGVMERPENCPDFLHKLMQRCWHHRSSARPSFLDIIAYLEPQCPNSQFKEVSFYHSEAGLQ
- Km [3]: 1350 ± 170 µM
